Source: patent US8710059B2, “N-phenyl-(homo)piperazinyl-benzenesulfonyl or benzenesulfonamide compounds suitable for treating disorders that respond to the modulation of the serotonin 5-HT6 receptor” (Abbott Laboratories, priority 2010, dated 2014)

Biological target: T1, dopamine D2 receptor (Homo sapiens, UniProt P14416)
T1 construct: expressed in transfected cells
Assay: Dopamine D2 receptor binding assay (displacement of [125I]-iodospiperone)
Settings: saturation binding experiments, HEK293 D2 membranes
Protocol: 1. […] The pellets were stored at −80° C. until use. […] (Beckman Ultrazentrifuge XL 80). […] 2. Receptor Binding Experiments
b) Dopamine D2 Receptor Binding Assay
Non-specific binding was defined with 1 μM haloperidol.

T1 sequence (P14416 whole entry): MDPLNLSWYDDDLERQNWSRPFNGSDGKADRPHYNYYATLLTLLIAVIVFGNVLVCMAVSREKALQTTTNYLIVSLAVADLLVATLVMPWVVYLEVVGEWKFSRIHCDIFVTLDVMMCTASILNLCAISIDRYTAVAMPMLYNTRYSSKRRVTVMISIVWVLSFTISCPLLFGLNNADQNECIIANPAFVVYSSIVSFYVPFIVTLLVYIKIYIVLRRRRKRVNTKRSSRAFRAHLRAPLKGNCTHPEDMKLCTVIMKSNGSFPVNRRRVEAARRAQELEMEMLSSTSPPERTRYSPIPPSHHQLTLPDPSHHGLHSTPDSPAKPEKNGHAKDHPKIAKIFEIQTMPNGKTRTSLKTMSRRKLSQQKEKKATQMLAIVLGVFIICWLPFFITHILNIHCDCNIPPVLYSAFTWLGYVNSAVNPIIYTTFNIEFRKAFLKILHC

Substance iodospiperone [[^125I]-iodospiperone] has a Kd of 0.22 nM.
